Like-named read-outs stand apart in the source and are kept apart here.
Experiments:
JAK2 = target: T1, JAK2 (Homo sapiens, UniProt O60674); experiment: Cell-free kinase assay JAK2; type: biochemical; conditions: for IC50: read-out: IC50 JAK 2
T1 construct: purchased BPS Bioscience 79,520
Method: (§1) The cell-free kinase assays of small molecules were determined by following the manufacturer-recommended protocols. Different concentrations in triplicate were used to determine the IC50 value of the hit molecules (active molecules). For data analysis, GraphPad Prism V9.5 Software and a sigmoidal dose–response (variable slope) equation were used. Each value represents an average of three replicates per concentration.

EGFR = target: T2, EGFR (Homo sapiens, UniProt P00533); experiment: Cell-free kinase assay EGFR; type: biochemical
T2 construct: purchased Promega Corporation V3831
T2 sequence (P00533 25-1210): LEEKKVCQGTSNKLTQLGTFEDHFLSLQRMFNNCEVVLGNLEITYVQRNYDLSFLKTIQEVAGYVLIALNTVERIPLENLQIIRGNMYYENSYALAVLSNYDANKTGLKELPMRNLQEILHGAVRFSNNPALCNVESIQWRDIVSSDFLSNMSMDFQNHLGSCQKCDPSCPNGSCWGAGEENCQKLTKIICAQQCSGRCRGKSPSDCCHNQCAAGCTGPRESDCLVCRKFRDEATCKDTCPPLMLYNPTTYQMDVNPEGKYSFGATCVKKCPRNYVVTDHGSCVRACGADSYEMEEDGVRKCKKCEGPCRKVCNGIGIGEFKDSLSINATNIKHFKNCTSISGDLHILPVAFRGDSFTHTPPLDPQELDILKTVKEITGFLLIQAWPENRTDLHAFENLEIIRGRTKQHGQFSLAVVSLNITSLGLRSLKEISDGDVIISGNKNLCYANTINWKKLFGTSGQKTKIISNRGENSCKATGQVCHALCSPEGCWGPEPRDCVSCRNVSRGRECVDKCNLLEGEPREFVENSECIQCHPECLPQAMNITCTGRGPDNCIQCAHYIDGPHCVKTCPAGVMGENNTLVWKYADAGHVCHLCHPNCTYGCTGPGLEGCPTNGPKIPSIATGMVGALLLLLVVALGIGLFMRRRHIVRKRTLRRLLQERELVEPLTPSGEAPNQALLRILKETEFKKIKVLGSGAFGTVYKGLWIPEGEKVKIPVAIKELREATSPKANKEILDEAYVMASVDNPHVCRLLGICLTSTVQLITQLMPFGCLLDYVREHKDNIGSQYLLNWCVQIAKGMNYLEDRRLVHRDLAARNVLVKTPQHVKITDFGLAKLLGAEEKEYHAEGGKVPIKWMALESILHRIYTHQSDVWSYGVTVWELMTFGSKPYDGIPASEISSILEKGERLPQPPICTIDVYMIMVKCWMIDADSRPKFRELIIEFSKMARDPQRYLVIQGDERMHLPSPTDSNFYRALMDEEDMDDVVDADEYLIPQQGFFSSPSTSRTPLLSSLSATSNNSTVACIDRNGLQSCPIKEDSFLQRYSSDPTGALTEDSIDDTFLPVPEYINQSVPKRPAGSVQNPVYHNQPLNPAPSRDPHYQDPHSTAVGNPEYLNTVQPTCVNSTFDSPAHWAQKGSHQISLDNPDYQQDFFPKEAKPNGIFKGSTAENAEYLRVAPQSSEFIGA
Method: as §1

PI-3-K β = target: T3, PI-3-K β (Homo sapiens, UniProt P42338); experiment: Cell-free kinase assay PI-3-K β; type: biochemical; conditions: Km ATP
T3 construct: purchased Promega Corporation V1690
Method: as §1

PI-3-K δ = target: T4, PI-3-K δ (Homo sapiens, UniProt O00329); experiment: Cell-free kinase assay PI-3-K δ; type: biochemical; conditions: Km ATP
T4 construct: purchased Promega Corporation V1690
Method: as §1

A549 = experiment: MTT cell viability assay A549; type: cell-based, human; conditions: Homo sapiens, A549, 48 h
Method: (§2) Cell viability was evaluated using an MTT colorimetric assay. Cells were seeded (10^5 cells/mL) in 96-well plates and allowed to grow overnight at 37 ℃ with 5% CO2 in a cell-culture incubator. On the following day, the cells were treated with small molecules at different concentrations (0.2–10 micro-molar) or vehicle (DMSO). Cells were then further incubated for 48 h.

MCF-7 = experiment: MTT cell viability assay MCF-7; type: cell-based, human; conditions: Homo sapiens, MCF7, 48 h
Method: as §2

Panc-2 = experiment: MTT cell viability assay Panc-2; type: cell-based; conditions: 48 h
Method: as §2

[1] = tested on: phosphorylation of JAK1, JAK3 and STAT3; experiment: Western blotting of JAK/STAT phosphorylation in A549 cells; type: cell-based, human
Method: For western blotting, A549 cells were seeded at a density of 0.2 × 10^6 cells/well in 6-well plates. […] Whole-cell lysates were prepared in 1× RIPA buffer (Sigma) with added sodium orthovanadate (1 mM), protease cocktail (Roche), NaF (1 mM), PMSF (1 mM) and EDTA (0.5 M). Protein estimation was done using Bradford reagent (Bio-Rad). […] Whole-cell lysates corresponding to 70-100 µg of protein were loaded. The samples were analysed by SDS-PAGE with a 10% separating gel. […] The membrane was probed with specific antibodies for pJAK-1 (1:1000), p-STAT-3 (CST) (1:1000), total JAK-1 (1:1000), pJAK-3 Z(1:1000), T-JAK-3 (1:1000), total STAT-3(1:1000), GAPDH (1:500), and visualized using ECL (Millipore). GAPDH was used as a loading control. […] Following this starvation period, the A549 cells were pre-treated with varying concentrations of MJ04 for a duration of 4 h. Following the pre-treatment, the cells were stimulated with 10 ng/mL of IL-6 for 30 min [20–22].

[2] = tested on: IFN-γ-producing CD4+ T-cells; experiment: T-cell differentiation of splenocytes, IFN-γ in CD4+ T-cells (Th1), flow cytometry; type: cell-based, C57BL/6 mice; conditions: dose-dependent, 0.01-10 µM
Method: Splenocytes were isolated from the spleen of C57BL/6 mice. The whole spleen was crushed in a complete RPMI medium and passed through the 40 µm cell filter to obtain a single-cell suspension. The cell suspension was centrifuged at 300×g for 5 min, and the pellet was resuspended into the 1× RBC lysis buffer (Life Technology, Thermofisher, USA) for 10 min at room temperature to lyse the red blood cells. The sample was further centrifuged at the same speed and duration, and the pellet was resuspended in complete RPMI medium. Now, splenocytes were seeded into the 96-well plates (U bottom) at 3 × 10^5 cells/well density. […] For Th1 and Tc1 differentiation, IL-12 (5 ng/ml) was added and allowed to grow for four days.
Prior to harvesting, cells were further stimulated with PMA (50 ng/ml), ionomycin (1000 ng/ml), and glogi Stop (as per manufacturer recommendation) for 4 h. The plate was spun down at 2000 rpm for 10 min and washed once with FACS buffer (3% FBS, 1× PBS, and 200 mM EDTA). Cells were stained with anti-CD4-PerCP and anti-CD8-FITC antibodies (BD, Biosciences) in the dilution 1:400 by adding 100 µl/well and incubated at RT for 60 min. […] Cells were finally washed and resuspended into FACS buffer, and data was recorded into the BD accuri C6 flow cytometer, and data were analyzed by Flowjo.

[3] = Acute dermal toxicity / irritation in C57BL/6 mice; type: in vivo
Method: The acute dermal toxicity was conducted in Wistar rats to determine the dermal LD50 of MJ04 adhering to Organization for Economic Cooperation and Development (OECD) test guideline 402. A single dose of MJ04 covering 10% of body surface area was administered using a fixed dose procedure from 200 mg/kg to 2000 mg/kg with two animals per dose. The animals were monitored for mortality, morbidity, and clinical signs of toxicity at first 30 min, 6 h, 24 h, and thereafter for 14 days. Parameters like body weight, serum biochemistry (liver function test, kidney function test, and lipid Profile), and histopathology were analysed. The acute dermal irritation test was conducted in C57BL/6J mice at a single dose of 0.04 mg/kg and 0.08 mg/kg of MJ04.
Signal dose acute dermal toxicity tests were conducted in C57BL/6 mice. The tests included limited dosages of a single dose at 0.04 mg/kg and 0.08 mg/kg of MJ04. […] Digital photographs were taken at various time points (0 min, 5 min, 1 h, 4 h, 24 h, and 14 days) from representative areas using a Nikon digital camera (n = 5 mice).

[4] = Pharmacokinetic study, dermal application; type: in vivo, C57BL/6 mice; conditions: male, C57BL/6, mouse, topical or ocular; topical dose 30 mg/kg, plasma
Method: The male C57BL/6 mice were used to study the pharmacokinetics of MJ04. MJ04 was dissolved in vehicle suspensions for dermal application (30 mg/kg). Blood samples were collected at different time points: 0 min, 30 min, 1 h, 2 h, 4 h, 8 h, 12 h, and 24 h after dermal application. Plasma samples were separated by centrifugation of whole blood and stored at less than − 70 °C until bioanalysis. The concentration of MJ04 in plasma was detected using LC–MS/MS (Agilent Technologies, 1260 Infinity system). The pharmacokinetic parameters were processed by DAS (version 3.2.8) software.

[5] = Stability of the formulation used for in vivo studies (HPLC); type: physicochemical; conditions: ethanol / ethanol:PEG-300, room temperature, 0-48 h
Method: The stability study of the lead compound (MJ04) was performed using HPLC analysis wherein the samples were studied after different time intervals. The 0.6 mg of MJ04 was taken and dissolved in 1 mL of ethanol to achieve 0.6 mg/mL concentration. Out of this, 500 µL was further diluted to 0.3 mg/mL by adding 500 µL ethanol to it (Ethanol sample). To remaining 500 µL, we added 500 µL PEG-300 to achieve final concentration of 0.3 mg /mL (Ethanol:PEG sample). HPLC of these samples was performed at various time points (0 h, 12 h, 24 h and 48 h) upon incubating at room temperature. The HPLC of samples was performed by RP-18 end capped; […], 4.6 × 250 mm. The mobile phase containing water (30%) and acetonitrile (70%) was used at the flow rate of 1 mL/min at a column temperature of 27 °C at 210 nm wavelength. A volume of 5 µL of sample was injected and the total run time of the assay was 30 min using the isocratic technique in the HPLC system.

hERG channels = target: T5, hERG channels (Homo sapiens, UniProt Q12809); experiment: hERG channel assay, whole cell patch clamp; type: cell-based
T5 construct: host or cells: HEK293
T5 sequence (Q12809 whole entry): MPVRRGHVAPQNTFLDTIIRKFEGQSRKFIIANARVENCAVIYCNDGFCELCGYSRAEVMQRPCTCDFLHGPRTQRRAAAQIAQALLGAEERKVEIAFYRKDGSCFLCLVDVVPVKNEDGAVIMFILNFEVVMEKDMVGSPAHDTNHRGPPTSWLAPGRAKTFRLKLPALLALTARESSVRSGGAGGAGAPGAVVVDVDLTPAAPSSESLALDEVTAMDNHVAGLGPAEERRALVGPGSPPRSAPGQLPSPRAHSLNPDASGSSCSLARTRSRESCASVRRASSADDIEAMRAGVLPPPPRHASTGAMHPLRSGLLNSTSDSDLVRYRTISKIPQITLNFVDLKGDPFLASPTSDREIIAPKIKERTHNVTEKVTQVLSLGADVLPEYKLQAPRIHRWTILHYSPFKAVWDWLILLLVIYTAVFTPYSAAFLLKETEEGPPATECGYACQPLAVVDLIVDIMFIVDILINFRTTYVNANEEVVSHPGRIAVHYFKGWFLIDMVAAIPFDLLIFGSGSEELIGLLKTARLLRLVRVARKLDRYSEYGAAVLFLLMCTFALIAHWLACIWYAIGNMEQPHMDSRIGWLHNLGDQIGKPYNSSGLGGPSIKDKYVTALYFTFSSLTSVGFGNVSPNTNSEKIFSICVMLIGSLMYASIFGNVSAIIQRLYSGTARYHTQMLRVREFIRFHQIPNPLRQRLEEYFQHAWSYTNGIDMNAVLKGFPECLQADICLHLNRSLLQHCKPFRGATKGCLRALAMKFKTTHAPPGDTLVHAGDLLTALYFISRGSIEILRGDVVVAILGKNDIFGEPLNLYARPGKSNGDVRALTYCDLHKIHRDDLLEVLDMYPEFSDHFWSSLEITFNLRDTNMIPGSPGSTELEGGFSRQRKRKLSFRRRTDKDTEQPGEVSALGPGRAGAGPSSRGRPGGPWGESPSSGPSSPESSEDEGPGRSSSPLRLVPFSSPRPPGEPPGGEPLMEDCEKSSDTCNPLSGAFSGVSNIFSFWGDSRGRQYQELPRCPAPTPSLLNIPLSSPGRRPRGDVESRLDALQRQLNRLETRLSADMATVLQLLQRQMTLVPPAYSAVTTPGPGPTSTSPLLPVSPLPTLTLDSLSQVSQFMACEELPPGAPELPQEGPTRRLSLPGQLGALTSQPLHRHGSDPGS

[6] = A549 cells, increasing concentrations

T1 sequence (O60674 whole entry): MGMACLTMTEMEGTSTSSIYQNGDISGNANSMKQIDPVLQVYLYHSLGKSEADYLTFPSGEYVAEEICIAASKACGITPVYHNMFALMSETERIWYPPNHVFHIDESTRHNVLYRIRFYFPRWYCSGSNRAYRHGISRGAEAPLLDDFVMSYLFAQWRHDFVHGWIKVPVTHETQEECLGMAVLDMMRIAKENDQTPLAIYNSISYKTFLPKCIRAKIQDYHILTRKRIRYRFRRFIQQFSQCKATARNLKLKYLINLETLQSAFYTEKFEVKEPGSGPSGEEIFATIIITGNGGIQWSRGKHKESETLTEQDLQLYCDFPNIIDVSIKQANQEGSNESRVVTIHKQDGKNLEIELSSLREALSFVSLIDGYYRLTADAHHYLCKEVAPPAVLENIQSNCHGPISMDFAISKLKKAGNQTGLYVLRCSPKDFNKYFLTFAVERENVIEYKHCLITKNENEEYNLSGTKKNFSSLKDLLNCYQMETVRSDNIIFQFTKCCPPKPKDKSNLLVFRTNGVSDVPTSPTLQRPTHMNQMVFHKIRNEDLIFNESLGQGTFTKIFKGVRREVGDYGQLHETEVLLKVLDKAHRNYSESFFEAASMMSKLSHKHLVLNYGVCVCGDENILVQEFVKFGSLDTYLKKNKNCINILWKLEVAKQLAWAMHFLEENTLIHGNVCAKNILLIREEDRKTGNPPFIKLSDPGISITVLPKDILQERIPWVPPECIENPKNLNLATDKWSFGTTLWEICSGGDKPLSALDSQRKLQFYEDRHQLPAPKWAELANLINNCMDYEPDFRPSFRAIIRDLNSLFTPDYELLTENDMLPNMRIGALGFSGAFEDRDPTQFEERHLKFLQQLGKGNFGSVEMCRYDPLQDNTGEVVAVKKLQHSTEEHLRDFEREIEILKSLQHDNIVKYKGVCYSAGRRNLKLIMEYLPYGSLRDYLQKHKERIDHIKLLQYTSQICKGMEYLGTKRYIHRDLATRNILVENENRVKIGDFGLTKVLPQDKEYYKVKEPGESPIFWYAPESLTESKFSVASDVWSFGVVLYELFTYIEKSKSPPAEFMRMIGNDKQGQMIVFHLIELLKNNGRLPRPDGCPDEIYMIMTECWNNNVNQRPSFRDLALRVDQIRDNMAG

Fc1ccc(-c2cnc3[nH]cc(-c4ccnc(NC5CC5)n4)c3c2)cc1 [MJ04]
IC50 (JAK2; 1mM ATP): > 10 µM
Fold of selectivity vs. JAK3 (JAK2; JAK 2): 126
IC50 (JAK2; Km ATP): 0.256 µM
Fold of selectivity vs. JAK3 (EGFR; EGFR): 1609
IC50 (EGFR; Km ATP): 3.27 µM
IC50 (PI-3-K β): > 10 µM
IC50 (PI-3-K δ): > 10 µM
IC50 (A549): 3.79 µM
IC50 (MCF-7): 4.47 µM
IC50 (Panc-2): 2.77 µM
STAT3 phosphorylation ([1]; A549 cells stimulated with IL-6): significant decrease
phosphorylation of STAT3 (Tyr705) ([1]; A549 cells, dose-dependent): significant decrease
phosphorylation of JAK1 [1, 6]: significant reduction
phosphorylation of JAK3 [1, 6]: significant reduction
differentiation of naïve T cells into Th1 subsets [2]: inhibits the differentiation of naïve T cells
mortality or clinical signs of toxicity ([3]; single dose 0.04 mg/kg): no mortality or clinical signs of toxicity
skin irritation/corrosion, mortality or clinical signs of toxicity ([3]; single dose 0.08 mg/kg, 14 days, 0.08 mg/kg): no skin irritation/corrosion, mortality or clinical signs of toxicity
Cmax [4]: 480 nM
Tmax [4]: 1 h
stability in the formulation used for animal experiments [5]: stable
reduction of hERG outward tail current (hERG channels; 10 μM): 7.1 ± 2%
inhibitory effect on hERG, fold less than that of Tofacitinib (hERG channels; highest concentration tested (30 μM)): ~ 2.5 fold

Source: publication PMC11025159 (Journal of Translational Medicine, 2024)
